Where two headings read alike, the source gives them in different places.

Experimental findings from patent US20230000842A1, “METHODS OF TREATING CARTILAGE DISORDERS THROUGH INHIBITION OF CLK AND DYRK” (SAMUMED, LLC, priority 2019, published 2023) are described below.

Assay [1] deals with CLK2 kinase (Homo sapiens, UniProt P49760). Kind of assay: CLK2 kinase activity assay (Z-lyte FRET).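 Note: FRET read-out as coumarin to fluorescein emission ratio, unphosphorylated peptide as 0% and phosphorylated peptide as 100% controls, duplicate reactions, non-linear regression fit of dose-response curves.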 In kind it is biochemical. The note with it: Z-lyte Ser/Thr 6 peptide, 60 μM ATP, 1 h at room temperature.
Assay [2] relates to Wnt pathway activity (SW480 colon carcinoma cells stably expressing the Sp5-Luc reporter). Kind of assay: Wnt pathway activity screening assay (Sp5-Luc reporter gene assay). To be noted: SW480 cells stably expressing Sp5-Luc reporter, 10-point dose-response from 10 μM, 36 to 48 hours.
The target in assay [3] is CLK3 kinase (Homo sapiens, UniProt P49761). Kind of assay: CLK3 kinase activity assay (Z-lyte FRET).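 Note: kinase activity read as coumarin/fluorescein emission ratio by FRET, unphosphorylated peptide as 0% and phosphorylated peptide as 100% control, values from non-linear regression of dose-response curves.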 To be noted: Z-lyte Ser/Thr 18 peptide, 156 μM ATP, 1 h at room temperature. It is filed as biochemical.
Assay [4] concerns primary human mesenchymal stem cells (hMSCs). Kind of assay: Chondrogenesis screening using primary human mesenchymal stem cells. It is filed as cell-based. The note with it: hMSC chondrogenesis; for EC50: concentration required to induce 50% levels of chondrogenesis with TGF-β3 as positive control, read-out: Conc (nM) of 50% TGF-β3 activity; for Emax: read-out: Max. Activity as % TGF-β3 activity. An outline of the steps:
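Primary hMSCs at passage 3–6 were treated across compound concentrations, with TGF-β3 as positive control. Chondrogenic nodule area per well was normalized to 3 DMSO wells on the same plate (fold over DMSO, 2–3 replicates). EC50, maximum activity and the dose reaching it were derived.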

Setting [5] is: Homo sapiens, Mesenchymal stem cells.
[6] abbreviates: Homo sapiens, Mesenchymal stem cells, maximum activity relative to TGF-β3 (10 ng/mL) positive control.

CLK2 kinase, sequence (P49760 whole entry): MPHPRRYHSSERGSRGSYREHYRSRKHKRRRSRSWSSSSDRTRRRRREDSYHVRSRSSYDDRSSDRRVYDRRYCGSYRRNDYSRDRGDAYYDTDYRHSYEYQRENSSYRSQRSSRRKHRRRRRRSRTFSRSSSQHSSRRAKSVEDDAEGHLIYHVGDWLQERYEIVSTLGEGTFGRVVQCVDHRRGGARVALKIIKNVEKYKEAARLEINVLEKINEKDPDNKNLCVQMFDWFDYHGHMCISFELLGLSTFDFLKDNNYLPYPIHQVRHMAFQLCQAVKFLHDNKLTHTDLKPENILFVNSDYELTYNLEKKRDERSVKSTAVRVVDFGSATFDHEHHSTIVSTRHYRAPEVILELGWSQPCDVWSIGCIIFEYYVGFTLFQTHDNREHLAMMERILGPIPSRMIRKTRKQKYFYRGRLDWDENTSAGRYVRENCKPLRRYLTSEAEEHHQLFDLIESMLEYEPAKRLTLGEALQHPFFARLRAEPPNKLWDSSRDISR
CLK3 kinase, sequence (P49761 whole entry): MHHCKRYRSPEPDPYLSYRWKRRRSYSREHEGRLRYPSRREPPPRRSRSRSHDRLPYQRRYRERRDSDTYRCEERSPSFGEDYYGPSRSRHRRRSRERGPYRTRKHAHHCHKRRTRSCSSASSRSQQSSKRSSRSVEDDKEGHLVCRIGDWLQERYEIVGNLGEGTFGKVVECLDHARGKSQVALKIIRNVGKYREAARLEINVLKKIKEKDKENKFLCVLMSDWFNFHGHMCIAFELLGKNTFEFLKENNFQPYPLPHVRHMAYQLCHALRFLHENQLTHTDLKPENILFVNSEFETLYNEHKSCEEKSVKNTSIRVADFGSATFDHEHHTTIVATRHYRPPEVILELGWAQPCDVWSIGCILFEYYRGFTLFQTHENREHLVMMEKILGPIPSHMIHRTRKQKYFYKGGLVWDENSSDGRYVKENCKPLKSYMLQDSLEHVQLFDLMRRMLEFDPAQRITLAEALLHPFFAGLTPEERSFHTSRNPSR

On to `O=C(Nc1cncc(-c2ccc3[nH]nc(-c4nc5c(-c6ccc(F)cc6)cncc5[nH]4)c3c2)c1)C1CCC1` [compound 164], for which the EC50 in assay [1] came to 28 nM; in assay [2] (Homo sapiens, SW480, Table 4) it was 5.7 nM; in assay [3], 87 nM; in assay [4] (setting [5]) it was 100 nM. In addition, the Emax in assay [4] (setting [6]) amounted to 203%.
Regarding `CN(C)Cc1cncc(-c2cc3c(-c4cc5c(-c6cccc(F)c6)nccc5[nH]4)n[nH]c3cn2)c1` [compound 311], the EC50 in assay [1] was 3 nM; in assay [2] (Homo sapiens, SW480, Table 4), 1850 nM; in assay [3], 218 nM; in assay [4] (setting [5]) it was 30 nM. Further, the Emax in assay [4] (setting [6]) was determined as 60%.
With `CC(C)CC(=O)Nc1cncc(-c2ccc3[nH]nc(-c4cc5c(-c6ccncc6)cncc5[nH]4)c3c2)c1` [compound 388], the EC50 worked out at 4 nM in assay [1]; 875 nM in assay [2] (Homo sapiens, SW480, Table 4); 29 nM in assay [3]. Also, the Emax in assay [4] (setting [6]) came out at 70.2%.
With `c1cncc(-c2ccc3[nH]nc(-c4nc5c(-c6cccnc6)cncc5[nH]4)c3n2)c1` [compound 184], the EC50 was 1 nM in assay [1]; greater than 10000 nM in assay [2] (Homo sapiens, SW480, Table 4); 177 nM in assay [3]; 30 nM in assay [4] (setting [5]). Further, the Emax in assay [4] (setting [6]) amounted to 83.8%.
Take `c1cncc(-c2cncc3[nH]c(-c4n[nH]c5ncc(-c6cncnc6)cc45)cc23)c1` [compound 373]: the EC50 is 4 nM in assay [1]; greater than 10000 nM in assay [2] (Homo sapiens, SW480, Table 4); 156 nM in assay [3]. Moreover, the Emax in assay [4] (setting [6]) is 24.1%.
For the compound `O=C(Nc1cncc(-c2cc3c(-c4cc5cnccc5[nH]4)n[nH]c3cn2)c1)c1ccccc1` [compound 437], the EC50 in assay [1] is 2 nM; in assay [2] (Homo sapiens, SW480, Table 4), 580 nM; in assay [3] it was 62 nM; in assay [4] (setting [5]), 10 nM. Also, the Emax in assay [4] (setting [6]) worked out at 152%.
For `Fc1cccc(-c2cncc3[nH]c(-c4n[nH]c5ccc(-c6cncc(CN7CCC(F)(F)C7)c6)cc45)nc23)c1` [compound 142], the EC50 in assay [1] was determined as 21 nM; in assay [2] (Table 4), 19.1 nM; in assay [3], 90 nM; in assay [4] it was 10 nM. Also, in assay [4] (maximum activity relative to TGF-β3 (10 ng/mL) positive control), the “Max. Activity as % TGF-β3 activity” value came out at 85.77%.
`Nc1cncc(-c2cnc3[nH]nc(-c4cc5c(-c6ccccc6F)nccc5[nH]4)c3c2)c1` [compound 321]: the EC50 was 7 nM in assay [1]; 197 nM in assay [2] (Homo sapiens, SW480, Table 4); 67 nM in assay [3]; 30 nM in assay [4] (setting [5]). Besides, in assay [4] (setting [6]), the Emax is 86%.
The like results for `CN1CCN(c2ccc(NC(=O)c3n[nH]c4ccc(-c5cncc(CN6CCC(F)(F)C6)c5)cc34)cn2)CC1` [compound 73] were, in that order, 1 nM, 4 nM, 11 nM, 30 nM and 80.9%.
For the compound `c1cc(-c2ccoc2)c2cc(-c3n[nH]c4ccc(-c5cncc(CNCC6CCCC6)c5)nc34)[nH]c2c1` [compound 502], the EC50 was found to be 14 nM in assay [1]; 3640 nM in assay [2] (Homo sapiens, SW480, Table 4); 336 nM in assay [3]. For the same compound, the Emax in assay [4] (setting [6]) stood at 25.3%.
Regarding `O=C(Nc1cncc(-c2ccc3[nH]nc(-c4nc5c(-c6ccc(Cl)s6)ccnc5[nH]4)c3n2)c1)C1CCC1` [compound 269], the EC50 came out at 12 nM in assay [1]; 354 nM in assay [2] (Homo sapiens, SW480, Table 4); 183 nM in assay [3]; 10 nM in assay [4] (setting [5]). The Emax in assay [4] (setting [6]) turned out to be 102%.
Turning to `CC(C)CC(=O)Nc1cncc(-c2cc3c(-c4nc5c(-c6ccoc6)cccc5[nH]4)n[nH]c3cn2)c1` [compound 233], the EC50 in assay [1] stood at 8 nM; in assay [2] (Homo sapiens, SW480, Table 4), 55.3 nM; in assay [3], 521 nM. In assay [4] (setting [6]), the Emax is 58%.
In the case of `CCC(=O)Nc1cncc(-c2cnc3[nH]nc(-c4cc5c(-c6cccnc6)cccc5[nH]4)c3c2)c1` [compound 348], the EC50 worked out at 3 nM in assay [1]; 180 nM in assay [2] (Homo sapiens, SW480, Table 4); 538 nM in assay [3]; 10 nM in assay [4] (setting [5]). Besides, the Emax in assay [4] (setting [6]) came out at 671%.
Take `c1cc2[nH]c(-c3n[nH]c4ncc(-c5cncc(CN6CCCCC6)c5)cc34)cc2cn1` [compound 451]: the EC50 in assay [1] was found to be 5 nM; in assay [2] (Homo sapiens, SW480, Table 4), 1540 nM; in assay [3], 53 nM. Also, in assay [4] (setting [6]), the Emax stood at 39.7%.
As to `O=C(Nc1cncc(-c2ccc3[nH]nc(-c4cc5c(-c6cccnc6)nccc5[nH]4)c3c2)c1)c1ccccc1` [compound 357], the EC50 in assay [1] was found to be 3 nM; in assay [2] (Homo sapiens, SW480, Table 4) it was 421 nM; in assay [3] it was 43 nM. Besides, the Emax in assay [4] (setting [6]) came to 19.4%.
`Fc1ccccc1-c1cncc2[nH]c(-c3n[nH]c4ncc(-c5cn[nH]c5)cc34)cc12` [compound 339]: the EC50 in assay [1] came out at 7 nM; in assay [2] (Homo sapiens, SW480, Table 4), 375 nM; in assay [3], 99 nM. Further, the Emax in assay [4] (setting [6]) came to 51.1%.
With `O=C(Nc1cncc(-c2ccc3[nH]nc(-c4nc5c(-c6ccc(Cl)s6)nccc5[nH]4)c3n2)c1)C1CCC1` [compound 267], the EC50 in assay [1] was found to be 8 nM; in assay [2] (Homo sapiens, SW480, Table 4) it was 823 nM; in assay [3], 9840 nM; in assay [4] (setting [5]), 30 nM. For the same compound, the Emax in assay [4] (setting [6]) is 60.2%.
Consider `O=C(Nc1cncc(-c2cnc3[nH]nc(-c4cc5cccnc5[nH]4)c3c2)c1)C1CCCCC1` [compound 432], for which the EC50 in assay [1] worked out at 17 nM; in assay [2] (Homo sapiens, SW480, Table 4) it was 1260 nM; in assay [3] it was 2970 nM. Moreover, the Emax in assay [4] (setting [6]) was 28.5%.
For the compound `CC(C)Nc1cncc(-c2cnc3[nH]nc(-c4nc5c(-c6ccoc6)nccc5[nH]4)c3c2)c1` [compound 237], the EC50 in assay [1] came out at 7 nM; in assay [2] (Homo sapiens, SW480, Table 4) it was 52.6 nM; in assay [3], 134 nM; in assay [4] (setting [5]), 30 nM. Also, in assay [4] (setting [6]), the Emax turned out to be 72%.
Turning to `O=C(CC1CCNCC1)Nc1cncc(-c2ccc3[nH]nc(-c4cc5c(-c6ccccn6)cccc5[nH]4)c3n2)c1` [compound 408], the EC50 worked out at 2 nM in assay [1]; 1440 nM in assay [2] (Homo sapiens, SW480, Table 4); 32 nM in assay [3]. Moreover, the Emax in assay [4] (setting [6]) was determined as 8.03%.
Regarding `Cn1cc(-c2cc3c(-c4nc5c(-c6cccc(F)c6)cncc5[nH]4)n[nH]c3cn2)cn1` [compound 157], the EC50 in assay [1] was found to be 2 nM; in assay [2] (Homo sapiens, SW480, Table 4) it was 70 nM; in assay [3], 416 nM; in assay [4] (setting [5]) it was 100 nM. Besides, the Emax in assay [4] (setting [6]) was 71%.
The like results for `CC(C)Nc1cncc(-c2ccc3[nH]nc(-c4cc5c(-c6cccnc6)cccc5[nH]4)c3c2)c1` [compound 359] were, in that order, 6 nM, 100 nM, 962 nM, 10 nM and 226%.
The like results for `CC(C)(C)CC(=O)Nc1cncc(-c2ccc3[nH]nc(-c4nc5ccncc5[nH]4)c3c2)c1` [compound 202] were, in that order, 2 nM, 21 nM, 65 nM, 100 nM and 152%.
The like results for `CCCC(=O)Nc1cncc(-c2cnc3[nH]nc(-c4nc5c(-c6ccoc6)cccc5[nH]4)c3c2)c1` [compound 230] were, in that order, 4 nM, 63 nM, 87 nM, 100 nM and 111%.
`c1cncc(-c2ccc3[nH]nc(-c4nc5c(-c6ccoc6)cncc5[nH]4)c3c2)c1` [compound 229]: the EC50 was 2 nM in assay [1]; 45.4 nM in assay [2] (Homo sapiens, SW480, Table 4); 44 nM in assay [3]; 100 nM in assay [4] (setting [5]). Besides, in assay [4] (setting [6]), the Emax turned out to be 149%.
Regarding `CCC(=O)Nc1cncc(-c2cc3c(-c4cc5c(-c6cccc(F)c6)nccc5[nH]4)n[nH]c3cn2)c1` [compound 306], the EC50 came out at 8 nM in assay [1]; 305 nM in assay [2] (Homo sapiens, SW480, Table 4); 138 nM in assay [3]; 30 nM in assay [4] (setting [5]). Besides, in assay [4] (setting [6]), the Emax came out at 50.8%.
Take `O=C(Nc1cncc(-c2ccc3[nH]nc(-c4cc5c(-c6ccccc6F)nccc5[nH]4)c3c2)c1)C1CCCC1` [compound 331]: the EC50 was 15 nM in assay [1]; 418 nM in assay [2] (Homo sapiens, SW480, Table 4); 158 nM in assay [3]. In addition, the Emax in assay [4] (setting [6]) worked out at 70.8%.
As for `CCC(=O)Nc1cncc(-c2ccc3[nH]nc(-c4nc5c(-c6cccc(F)c6)cncc5[nH]4)c3c2)c1` [compound 120], the EC50 amounted to 23 nM in assay [1]; 4.6 nM in assay [2] (Homo sapiens, SW480, Table 4); 61 nM in assay [3]; 30 nM in assay [4] (setting [5]). The Emax in assay [4] (setting [6]) came out at 139%.
On to `CN1CCN(c2nccc3[nH]c(-c4n[nH]c5cnc(-c6cncc(NC(=O)C7CCCCC7)c6)cc45)cc23)CC1` [compound 483], for which the EC50 in assay [1] turned out to be 8 nM; in assay [2] (Homo sapiens, SW480, Table 4) it was 3420 nM; in assay [3], 303 nM; in assay [4] (setting [5]) it was 10 nM. In addition, in assay [4] (setting [6]), the Emax was determined as 60.8%.
As for `CCCCC(=O)Nc1cncc(-c2cc3c(-c4cc5cnccc5[nH]4)n[nH]c3cn2)c1` [compound 422], the EC50 in assay [1] came out at 3 nM; in assay [2] (Homo sapiens, SW480, Table 4), 3570 nM; in assay [3] it was 54 nM. In addition, in assay [4] (setting [6]), the Emax came out at 49.9%.
